The values that follow come from patent US11344510B2, “Arylcyclohexylamine derivatives and their use in the treatment of psychiatric disorders” (Gilgamesh Pharmaceuticals, Inc., priority 2019, dated 2022).

Data set [1] can be described thus: HLM stability (Low Activity, Alternative Method). It is filed as in vitro ADME. The conditions noted are these: both sexes, human, liver microsomes, pH 7.4, Condition 1 column, values marked *: Low Activity, 0.50 mg protein/mL. The essentials:
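Pooled male and female human liver microsomes (0.50 mg/mL) in 100 mM PBS pH 7.4 with 1 mM MgCl2 and 1 mM NADPH, compound 1 μM (1.0% solvent), 37° C with shaking, six time points over 60 min. Parent remaining measured by LC-MS/MS; kel, t1/2 and Clint from linear regression of ln(AUC) versus time.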
(In general: Liver microsomes are a subcellular fraction often used to study metabolism.)

Data set [2] can be described thus: MLM stability (Low Activity). It is filed as in vitro ADME, CD-1 mice. The conditions noted are these: male, CD-1, mouse, liver microsomes, pH 7.4, Condition 1 (Low Activity), 0.50 mg protein/mL. The procedure, abridged: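 Pooled male CD-1 mouse liver microsomes (0.50 mg/mL) with 1 μM compound and 1 mM NADPH in 100 mM PBS pH 7.4 with 1 mM MgCl2, 37 °C, six time points over 60 min. Parent remaining by LC-MS/MS; kel, t1/2 and Clint from linear regression of ln(AUC) versus time.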

The nature of data set [3]: RLM stability (Low Activity). It is filed as in vitro ADME, Sprague Dawley rats. The settings on record: male, Sprague Dawley, rat, liver microsomes, pH 7.4, Condition 1 (Low Activity), 0.50 mg protein/mL. The essentials:
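Pooled male Sprague Dawley rat liver microsomes (0.50 mg/mL) in PBS pH 7.4 with 1 mM MgCl2 and 1 mM NADPH; compound 1 μM, 1.0% solvent, 37° C. Six time points over 60 min, parent remaining by LC-MS/MS; kel, t1/2 and Clint from linear regression of ln(AUC) versus time.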

The target of data set [4] is MK-801 binding site of the N-methyl-D-aspartate receptor (NMDAR). The data set is described as follows: NMDAR radioligand binding with [3H]MK-801, Method B. The arrangement: species or system Sprague Dawley rat. The conditions noted are these: MK-801 site, Method B, male Sprague Dawley rat cortex, 5.0 nM [3H]MK-801; read-out: NMDAR Ki ± SEM. The procedure:
Radioligand Binding—Method B. Affinity of the test compounds for NMDAR was determined in radioligand binding experiments with [^3H]MK-801 by WuXi AppTec (Hong Kong) Limited, under the conditions described in Table 13.

The target in data set [5] is T1, serotonin transporter (SERT) (Homo sapiens, UniProt P31645).
T1 construct: expressed in transfected cells; host or cells: HEK293
T1 sequence (P31645 whole entry, species assumed): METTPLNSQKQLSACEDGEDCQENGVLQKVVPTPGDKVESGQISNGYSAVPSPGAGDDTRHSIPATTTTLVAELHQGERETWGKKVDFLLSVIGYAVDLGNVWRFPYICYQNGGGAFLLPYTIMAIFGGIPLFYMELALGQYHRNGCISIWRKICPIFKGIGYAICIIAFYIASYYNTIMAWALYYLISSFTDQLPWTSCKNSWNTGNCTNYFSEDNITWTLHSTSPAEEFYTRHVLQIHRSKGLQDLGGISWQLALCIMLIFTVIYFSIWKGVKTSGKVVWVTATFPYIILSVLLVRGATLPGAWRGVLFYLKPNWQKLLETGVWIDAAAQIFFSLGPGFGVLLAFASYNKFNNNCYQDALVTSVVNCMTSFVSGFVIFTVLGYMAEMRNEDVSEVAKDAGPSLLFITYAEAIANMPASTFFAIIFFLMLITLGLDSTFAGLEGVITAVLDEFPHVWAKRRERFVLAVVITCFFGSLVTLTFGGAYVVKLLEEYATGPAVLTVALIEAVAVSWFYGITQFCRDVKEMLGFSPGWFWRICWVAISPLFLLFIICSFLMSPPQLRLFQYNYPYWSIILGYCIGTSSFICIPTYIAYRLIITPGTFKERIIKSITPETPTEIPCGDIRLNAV
The data set is described as follows: Fluorescent substrate uptake inhibition, SERT. The settings on record: for inhibition at 10 µM: HEK293 cells expressing SERT. It is filed as cell-based.

Data set [6] concerns the target T2, norepinephrine transporter (NET) (Homo sapiens, UniProt P23975).
T2 construct: expressed in transfected cells; host or cells: HEK293
The data set can be described thus: Fluorescent substrate uptake inhibition, NET. It is filed as cell-based. The conditions noted are these: 10 μM, HEK293 cells expressing NET.

Data set [7] addresses T3, dopamine transporter (DAT) (Homo sapiens, UniProt Q01959).
T3 construct: expressed in transfected cells; host or cells: CHO (uptake)
The data set is described as follows: Fluorescent substrate uptake inhibition, DAT. It is filed as cell-based. The conditions noted are these: 10 μM, CHO cells expressing DAT.

Data set [8] addresses T4, vesicular monoamine transporter 2 (VMAT2) (Homo sapiens, UniProt Q05940).
T4 construct: expressed in transfected cells
The data set is described as follows: Fluorescent substrate uptake inhibition, VMAT2. It is filed as cell-based. The conditions noted are these: 10 μM, transfected cells.

Data set [9] has as its target T5, SERT (Homo sapiens, UniProt P31645).
T5 construct: expressed in transfected cells; host or cells: HEK293
The data set can be described thus: SERT radioligand binding with [3H]imipramine. The procedure: Radioligand Binding. Affinity of the test compounds for SERT, NET, and DAT was determined in radioligand binding experiments with [^3H]imipramine, [^3]nisoxetine, and [^3H]WIN35,428, respectively, by WuXi AppTec (Hong Kong) Limited, under the conditions described in Table 15.

Data set [10] can be described thus: HLM stability (Low Activity). It is filed as in vitro ADME. The conditions noted are these: both sexes, human, liver microsomes, pH 7.4, Condition 1 (Low Activity), 0.42 mg protein/mL. The procedure: For some of the compounds, stability was tested under two microsomal incubation conditions, one with normal enzymatic activity (low activity) and one with higher enzymatic loading, longer incubation time, and lower compound concentration (high activity) intended to increase metabolic lability.
(§1) HLM Stability (Low Activity). Pooled HLM from adult male and female donors (XenoTech H0630) were used. Microsomal incubations were carried out in 96-well plates in 5 aliquots of 40 μL, each (one for each time point). Liver microsomal incubation medium consisted of PBS (100 mM, pH 7.4), MgCl2 (3.3 mM), NADPH (3 mM), glucose-6-phosphate (5.3 mM), and glucose-6-phosphate dehydrogenase (0.67 units/mL), with 0.42 mg of liver microsomal protein per mL. Control incubations were performed by replacing the NADPH-cofactor system with PBS. Test compounds (2 μM, final solvent concentration 1.6%) were incubated with microsomes at 37° C., shaking at 100 rpm. Incubations were performed in duplicate. Five time points over 40 minutes were analyzed. The reactions were stopped by adding 12 volumes of 90% acetonitrile-water to incubation aliquots, followed by protein sedimentation by centrifugation at 5500 rpm for 3 minutes. Supernatants were analyzed for parent compound remaining using a fit-for-purpose liquid chromatography-tandem mass spectrometry (LC-MS/MS) method, with authentic samples of each analyte used for identity confirmation.
(§2) Data Analysis. The elimination constant (kel), half-life (t1/2) and intrinsic clearance (Clint) were determined in a plot of […] versus time, using linear regression analysis.

Data set [11] in a line: HLM stability (High Activity). It is filed as in vitro ADME. The settings on record: both sexes, human, liver microsomes, pH 7.4, Condition 2 (High Activity), 1.0 mg protein/mL. The procedure:
as §1, with “Stability (High” for “Stability (Low”, “with 1.0” for “with 0.42”, “compounds (1” for “compounds (2”, “over 60” for “over 40”
as §2

Data set [12] deals with MK-801 binding site of the N-methyl-D-aspartate receptor (NMDAR). The data set is described as follows: NMDAR radioligand binding with [3H]MK-801, Method A. The arrangement: species or system Wistar rat. The settings on record: MK-801 site, Method A, Wistar rat brain (minus cerebellum), 5.0 nM [3H]MK-801; read-out: NMDAR Ki ± SEM. The procedure:
Radioligand Binding—Method A. Affinity of the test compounds for NMDAR was determined in radioligand binding experiments with [^3H]MK-801 by Eurofins Panlabs, Inc., using methods adapted from the literature (Javitt et al. 1987; Reynolds et al. 1989) and under the conditions described in Table 12.

Data set [13] in a line: MLM stability (High Activity). It is filed as in vitro ADME, BALB/c mice. The settings on record: male, BALB/c, mouse, liver microsomes, pH 7.4, Condition 2 (High Activity), 1.0 mg protein/mL. The procedure: (§3) MLM Stability (High Activity). Pooled MLM from male BALB/c mice (XenoTech M3000) were used. Microsomal incubations were carried out in 96-well plates in 5 aliquots of 40 μL each (one for each time point). Liver microsomal incubation medium consisted of PBS (100 mM, pH 7.4), MgCl2 (3.3 mM), NADPH (3 mM), glucose-6-phosphate (5.3 mM), and glucose-6-phosphate dehydrogenase (0.67 units/mL), with 1.0 mg of liver microsomal protein per mL. Control incubations were performed by replacing the NADPH-cofactor system with PBS. Test compounds (1 μM, final solvent concentration 1.6%) were incubated with microsomes at 37° C., shaking at 100 rpm. Incubations were performed in duplicate. Five time points over 60 minutes were analyzed. The reactions were stopped by adding 9 volumes of 90% acetonitrile-water to incubation aliquots, followed by protein sedimentation by centrifugation at 5500 rpm for 3 minutes. Supernatants were analyzed for parent compound remaining using a fit-for-purpose liquid chromatography-tandem mass spectrometry (LC-MS/MS) method, with authentic samples of each analyte used for identity confirmation.
as §2

Data set [14] can be described thus: RLM stability (High Activity). It is filed as in vitro ADME, Sprague Dawley rats. The settings on record: male, Sprague Dawley, rat, liver microsomes, pH 7.4, Condition 2 (High Activity), 1 μM, 1.0 mg protein/mL. The procedure: as §3, with “RLM” for “MLM”, “Sprague Dawley rats” for “BALB/c mice”, “R1000, lot #1910100)” for “M3000)”
as §2

pIC50, pKi: −log10 of the molar value. A value given as a limit tells only on which side of the number the result lay.

T2 sequence (P23975 whole entry, species assumed): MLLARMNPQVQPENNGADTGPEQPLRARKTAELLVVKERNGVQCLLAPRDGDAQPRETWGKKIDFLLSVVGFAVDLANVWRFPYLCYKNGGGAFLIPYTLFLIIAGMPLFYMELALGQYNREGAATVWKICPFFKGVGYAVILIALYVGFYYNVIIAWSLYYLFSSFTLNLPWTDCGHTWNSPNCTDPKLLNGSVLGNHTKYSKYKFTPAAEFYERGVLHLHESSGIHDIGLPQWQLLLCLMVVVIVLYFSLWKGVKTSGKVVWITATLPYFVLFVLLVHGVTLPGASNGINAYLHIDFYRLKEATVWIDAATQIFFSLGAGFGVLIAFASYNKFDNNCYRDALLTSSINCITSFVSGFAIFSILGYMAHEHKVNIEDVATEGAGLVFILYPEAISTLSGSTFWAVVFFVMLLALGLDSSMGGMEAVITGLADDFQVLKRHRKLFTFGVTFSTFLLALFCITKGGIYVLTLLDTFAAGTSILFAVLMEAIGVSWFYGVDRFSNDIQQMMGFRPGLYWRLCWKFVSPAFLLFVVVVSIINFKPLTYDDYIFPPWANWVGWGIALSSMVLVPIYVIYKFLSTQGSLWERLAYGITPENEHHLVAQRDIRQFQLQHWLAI
T3 sequence (Q01959 whole entry, species assumed): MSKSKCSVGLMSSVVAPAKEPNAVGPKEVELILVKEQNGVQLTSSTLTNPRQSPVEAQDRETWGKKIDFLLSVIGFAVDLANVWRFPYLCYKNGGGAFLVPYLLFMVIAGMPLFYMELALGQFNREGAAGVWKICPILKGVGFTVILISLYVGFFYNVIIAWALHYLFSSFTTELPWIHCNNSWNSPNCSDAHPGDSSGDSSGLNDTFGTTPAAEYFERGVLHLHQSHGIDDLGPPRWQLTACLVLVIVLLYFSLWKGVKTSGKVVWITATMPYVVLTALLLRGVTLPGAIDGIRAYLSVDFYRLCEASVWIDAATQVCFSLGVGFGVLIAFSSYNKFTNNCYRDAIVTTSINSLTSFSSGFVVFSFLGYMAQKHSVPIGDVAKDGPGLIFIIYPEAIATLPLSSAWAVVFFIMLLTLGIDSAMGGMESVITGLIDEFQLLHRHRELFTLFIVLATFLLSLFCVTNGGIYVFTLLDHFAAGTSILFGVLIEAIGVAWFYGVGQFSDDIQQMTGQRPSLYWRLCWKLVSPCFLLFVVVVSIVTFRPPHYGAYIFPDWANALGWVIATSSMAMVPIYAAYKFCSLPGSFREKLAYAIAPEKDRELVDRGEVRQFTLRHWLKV
T4 sequence (Q05940 whole entry, species assumed): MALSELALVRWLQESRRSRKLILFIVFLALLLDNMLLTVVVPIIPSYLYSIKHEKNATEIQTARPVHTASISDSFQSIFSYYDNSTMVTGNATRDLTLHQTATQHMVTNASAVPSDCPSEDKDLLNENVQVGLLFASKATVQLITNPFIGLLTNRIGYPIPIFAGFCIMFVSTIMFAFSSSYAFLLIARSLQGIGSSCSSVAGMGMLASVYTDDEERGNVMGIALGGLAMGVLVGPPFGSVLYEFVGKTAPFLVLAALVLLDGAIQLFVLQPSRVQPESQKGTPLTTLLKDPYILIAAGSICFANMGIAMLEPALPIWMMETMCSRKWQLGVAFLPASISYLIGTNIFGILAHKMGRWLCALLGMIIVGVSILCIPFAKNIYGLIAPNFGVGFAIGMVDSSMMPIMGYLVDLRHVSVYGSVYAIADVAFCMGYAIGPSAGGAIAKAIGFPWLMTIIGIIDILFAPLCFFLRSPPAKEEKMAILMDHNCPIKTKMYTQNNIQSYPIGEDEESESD
T5 sequence (P31645 whole entry, species assumed): as the sequence (P31645 whole entry, species assumed) above

For orientation: half-life means how long it takes for the measured level to halve. A higher half-life goes with slow loss. For orientation: microsomal CLint means the rate of metabolic loss divided by the concentration. Lower therefore signals greater metabolic stability. As a reminder, the pKi is the negative decadic logarithm of the Ki, by convention in mol/L. What is called pIC50 is −log10 of the IC50, conventionally taken in molar units. One may read the inhibition as the drop in the measured response relative to a control, in per cent. For the compound `CC(C)N[C@@]1(c2ccccc2)CCCCC1=O` [Compound 28R, (R)-2-(isopropylamino)-2-phenylcyclohexan-1-one], the half-life at 1 μM in [1] was determined as 1.16 h; in [2], 0.188 h; in data set [3], 0.438 h. Besides, the microsomal CLint at 1 μM was found to be 20 µL/min/mg in data set [1], 123 µL/min/mg in data set [2] and 52.6 µL/min/mg in data set [3]. Besides, the pKi in data set [4] is under 4.64; in [9] it was 5.07. This compound also gave a pIC50 in data set [5] of 5.14. For the same compound, the inhibition at 10 µM was 37.2% in [5], 11.4% in data set [6], 16.5% in data set [7] and -11.4% in data set [8].

In data set [10], `CNC1(c2cccc(OC)c2)CCCCC1=O` (racemic) [Compound 3rac] yielded a half-life at 2 μM of 1.46 h and a microsomal CLint at 2 μM of 19 µL/min/mg. Also, in data set [11], the half-life at 1 μM was 2.5 h and the intrinsic metabolic clearance (microsomal CLint) at 1 μM worked out at 5 µL/min/mg. Besides, the pKi in data set [12] is 6.00.

For `CN[C@@]1(c2cccc(F)c2)CCCCC1=O` [Compound 19R, (R)-2-(3-fluorophenyl)-2-(methylamino)cyclohexan-1-one], the half-life at 1 μM came out at 2.27 h in data set [11], 0.998 h in data set [13] and 0.195 h in [14]. The microsomal CLint at 1 μM in data set [11] is 5 µL/min/mg; in data set [13], 12 µL/min/mg; in data set [14] it was 59 µL/min/mg. For the same compound, the pKi in data set [4] was 5.17. Besides, the inhibition at 10 µM in [5] was 20.9%; in data set [6], 8.8%; in data set [7], -10.7%; in data set [8] it was 11%.

`NC1(c2ccccc2Cl)CCCCC1=O` (racemic) [Compound 78rac]: in data set [10], the half-life at 2 μM worked out at 4.28 h and the microsomal CLint at 2 μM came out at 7 µL/min/mg. Moreover, in [11], the half-life at 1 μM was determined as 3.03 h and the microsomal CLint at 1 μM is 4 µL/min/mg. Also, the pKi in [12] is 5.40.

In [10], `NC1(c2ccccc2)CCCCC1=O` (racemic) [Compound 11rac, 2-amino-2-phenyl-cyclohexan-1-one] yielded a half-life at 2 μM of 13.4 h and a microsomal CLint at 2 μM of 2 µL/min/mg. In data set [11], this compound displayed a half-life at 1 μM of 8.9 h and a microsomal CLint at 1 μM of 1 µL/min/mg. Also, the pKi in data set [12] was 5.85.

In [10], `CCNC1(c2ccccc2)CCCCC1=O` (racemic) [Compound 1rac] displayed a half-life at 2 μM of 2.22 h and a microsomal CLint at 2 μM of 13 µL/min/mg. In data set [11], this compound came in with a half-life at 1 μM of 4.98 h and a microsomal CLint at 1 μM of 2 µL/min/mg. Further, the pKi in data set [12] is 6.52.
